Usually MIC stands for the lowest concentration found to suppress growth.

The values below come from patent US7622481B2, “Antibacterial compounds” (priority 2003, dated 2009).

Where a name gives a salt, the structure may show the parent alone. Read-outs that look alike come from different tables or passages of the source.

A short description of the assay: MIC of test compounds against various organisms. The format is cell-based. As to the method: The MIC (μg/ml) of test compounds against various organisms was determined including:
S. epidermidis CL7, S. aureus WCUH29, S. pneumoniae 1629, S. pyogenes CN10, H. influenzae ATCC 49247, E. faecalis 2, M. catarrhalis Ravasio, E. coli 7623.

Setting [1] is: versus at least one of these organisms (panel of 8 strains), read-out: MIC.
Where [2] appears, read: versus all these organisms (panel of 8 strains), read-out: MIC.
[3] abbreviates: versus some of these organisms (panel of 8 strains), read-out: MIC.

As to `O=C1CSc2ccc(CN[C@H]3CC[C@H](C(=O)Nc4cccc5cnccc45)CC3)cc2N1` [Example 4, trans-4-[(3-Oxo-3,4-dihydro-2H-benzo[1,4]thiazin-6-ylmethyl)-amino]-cyclohexanecarboxylic acid isoquinolin-5-ylamide], under setting [1], the MIC is at most 16 µg/mL.

For the molecule `N#Cc1ccc2cccc(NC(=O)[C@@H]3CC[C@@H](NCc4ccc5c(n4)NC(=O)CO5)[C@@H](O)C3)c2n1` [Example 9, (1R,3S,4R)-3-Hydroxy-4-[(3-oxo-3,4-dihydro-2H-pyrido[3,2-b][1,4]oxazin-6-ylmethyl)-amino]-cyclohexanecarboxylic acid (2-cyano-quinolin-8-yl)-amide hydrochloride], the minimum inhibitory concentration (MIC) under setting [2] was at most 2 µg/mL.

Consider `N#Cc1ccc2cccc(NC(=O)[C@H]3CC[C@H](NCc4ccc5c(n4)NC(=O)CO5)[C@H](O)C3)c2n1` [Example 13, (1S,3R,4S)-3-Hydroxy-4-[(3-oxo-3,4-dihydro-2H-pyrido[3,2-b][1,4]oxazin-6-ylmethyl)-amino]-cyclohexanecarboxylic acid (2-cyano-quinolin-8-yl)-amide hydrochloride], for which the minimal inhibitory concentration (MIC) under setting [2] was at most 2 µg/mL.

For the molecule `COc1ccc2cccc(CC[C@]3(O)CC[C@@H](NCc4ccc5c(n4)NC(=O)CO5)CC3)c2n1` [Example 7, 6-({4-Hydroxy-4-[2-(2-methoxy-quinolin-8-yl)-ethyl]-cyclohexylamino}-methyl)-4H-pyrido[3,2-b][1,4]oxazin-3-one], the MIC under setting [2] is at most 2 µg/mL.

As to `Cc1ccc2cccc(NC(=O)[C@]3(O)CC[C@@H](NCc4ccc5c(n4)NC(=O)CO5)CC3)c2n1` [Example 18, 1-Hydroxy-t-4-[(3-oxo-3,4-dihydro-2H-pyrido[3,2-b][1,4]oxazin-6-ylmethyl)-amino]-r-cyclohexanecarboxylic acid (2-methyl-quinolin-8-yl)-amide dihydrochloride], the MIC under setting [2] was at most 2 µg/mL.

Turning to `COc1cnc2cccc(NC(=O)[C@]3(O)CC[C@@H](NCc4ccc5c(n4)NC(=O)CS5)CC3)c2n1` [Example 34, 1-Hydroxy-t-4-[(3-oxo-3,4-dihydro-2Hpyrido[3,2-b][1,4]thiazin-6-ylmethyl)-amino]-r-cyclohexanecarboxylic acid (3-methoxy-quinoxalin-5-yl)-amide hydrochloride], the MIC under setting [2] was at most 2 µg/mL.

Regarding `COc1ccc2cccc(CC[C@]3(O)CC[C@@H](NCc4cnc5c(c4)NC(=O)CS5)CC3)c2n1` [Example 21, 7-({r-4-Hydroxy-4-[2-(2-methoxy-quinolin-8-yl)-ethyl]-c-cyclohexylamino}-methyl)-1H-pyrido[2,3-b][1,4]thiazin-2-one], the MIC under setting [2] was at most 2 µg/mL.

With `CO[C@@H]1C[C@H](C(=O)Nc2cccc3ccc(C)nc23)CC[C@H]1NCc1cc2c(cn1)OCCO2` [Example 39, (1R,3R,4R)-4-[(2,3-Dihydro-[1,4]dioxino[2,3-c]pyridin-7-ylmethyl)-amino]-3-methoxy-cyclohexanecarboxylic acid (2-methyl-quinolin-8-yl)-amide dihydrochloride], the MIC is at most 2 µg/mL.

Turning to `COc1ccc2cccc(NC(=O)[C@]3(O)CC[C@@H](NCc4ccc5c(n4)NC(=O)CS5)CC3)c2n1` [Example 5, 1-Hydroxy-t-4-[(3-oxo-3,4-dihydro-2H-pyrido[3,2-b][1,4]thiazin-6-ylmethyl)-amino]-r-cyclohexanecarboxylic acid (2-methoxy-quinolin-8-yl)-amide], the minimal inhibitory concentration (MIC) under setting [2] was at most 2 µg/mL.

Take `N#Cc1ccc2nccc(NC(=O)[C@]3(O)CC[C@@H](NCc4ccc5c(n4)NC(=O)CS5)CC3)c2c1` [Example 40, 1-Hydroxy-t-4-[(3-oxo-3,4-dihydro-2H-pyrido[3,2-b][1,4]thiazin-6-ylmethyl)-amino]-r-cyclohexanecarboxylic acid (6-cyano-quinolin-4-yl)-amide dihydrochloride]: the minimal inhibitory concentration (MIC) under setting [2] is at most 2 µg/mL.

Take `N#Cc1ccc2cccc(NC(=O)[C@]3(O)CC[C@@H](NCc4cc5c(cn4)OCCO5)CC3)c2n1` [Example 38, t-4-[(2,3-Dihydro-[1,4]dioxino[2,3-c]pyridin-7-ylmethyl)-amino]-1-hydroxy-r-cyclohexanecarboxylic acid (2-cyano-quinolin-8-yl)-amide hydrochloride]: the minimal inhibitory concentration (MIC) under setting [2] was at most 2 µg/mL.

As for `Cc1cnc2cccc(NC(=O)[C@]3(O)CC[C@@H](NCc4ccc5c(n4)NC(=O)CS5)CC3)c2n1` [Example 25, 1-Hydroxy-t-4-[(3-oxo-3,4-dihydro-2H-pyrido[3,2-b][1,4]thiazin-6-ylmethyl)-amino]-r-cyclohexanecarboxylic acid (3-methyl-quinoxalin-5-yl)-amide dihydrochloride], under setting [2], the minimum inhibitory concentration (MIC) is at most 2 µg/mL.

Take `N#Cc1ccc2cccc(NC(=O)[C@@H]3CC[C@@H](NCc4ccc5c(n4)NC(=O)CS5)[C@@H](O)C3)c2n1` [Example 16, (1R,3S,4R)-3-Hydroxy-4-[(3-oxo-3,4-dihydro-2H-pyrido[3,2-b][1,4]thiazin-6-ylmethyl)-amino]-cyclohexanecarboxylic acid (2-cyano-quinolin-8-yl)-amide hydrochloride]: the minimal inhibitory concentration (MIC) under setting [2] is at most 2 µg/mL.

As for `Cc1ccc2cccc(NC(=O)[C@]3(O)CC[C@@H](NCc4cc5c(cn4)OCCO5)CC3)c2n1` [Example 35, t-4-[(2,3-Dihydro-[1,4]dioxino[2,3-c]pyridin-7-ylmethyl)-amino]-1-hydroxy-c-cyclohexanecarboxylic acid (2-methyl-quinolin-8-yl)-amide dihydrochloride], the MIC under setting [2] is at most 8 µg/mL.

Turning to `COc1ccc2cccc(NC(=O)[C@]3(O)CC[C@@H](NCc4ccc5c(n4)NCCS5)CC3)c2n1` [Example 6, 4-[(3,4-Dihydro-2H-pyrido[3,2-b][1,4]thiazin-6-ylmethyl)-amino]-1-hydroxy-cyclohexanecarboxylic acid (2-methoxy-quinolin-8-yl)-amide], under setting [2], the minimal inhibitory concentration (MIC) is at most 8 µg/mL.

For `Cn1ccc2cccc(NC(=O)[C@]3(O)CC[C@@H](NCc4ccc5c(n4)NC(=O)CS5)CC3)c2c1=O` [Example 26, 1-Hydroxy-t-4-[(3-oxo-3,4-dihydro-2H-pyrido[3,2-b][1,4]thiazin-6-ylmethyl)-amino]-r-cyclohexanecarboxylic acid (2-methyl-1-oxo-1,2-dihydro-isoquinolin-8-yl)-amide hydrochloride], under setting [2], the MIC was at most 2 µg/mL.

As to `COc1ccc2cccc(CCC3(O)CCC(NCc4ccc5c(n4)NC(=O)CS5)CC3)c2n1` (centres unmarked) [Example 8, 6-({4-Hydroxy-4-[2-(2-methoxy-quinolin-8-yl)-ethyl]-cyclohexylamino}-methyl)-4H-pyrido[3,2-b][1,4]thiazin-3-one], the MIC under setting [2] was at most 2 µg/mL.

Regarding `COc1ccc2cccc(NC(=O)[C@]3(O)CC[C@@H](NCc4ccc5c(n4)NC(=O)CO5)CC3)c2n1` [Example 17, 1-Hydroxy-t-4-[(3-oxo-3,4-dihydro-2H-pyrido[3,2-b][1,4]oxazin-6 ylmethyl)-amino]-r-cyclohexanecarboxylic acid (2-methoxy-quinolin-8-yl)-amide], under setting [2], the minimal inhibitory concentration (MIC) was at most 2 µg/mL.

In the case of `CC1CNc2cccc(NC(=O)[C@]3(O)CC[C@@H](NCc4ccc5c(n4)NC(=O)CO5)CC3)c2N1` (some centres unmarked) [Example 33, 1-Hydroxy-t-4-[(3-oxo-3,4-dihydro-2H-pyrido[3,2-b][1,4]oxazin-6-ylmethyl)-amino]-c-cyclohexanecarboxylic acid (3-methyl-1,2,3,4-tetrahydro-quinoxalin-5-yl)-amide dihydrochloride], under setting [3], the minimum inhibitory concentration (MIC) is at most 2 µg/mL.

In the case of `Cc1cnc2c(NC(=O)[C@]3(O)CC[C@@H](NCc4ccc5c(n4)NC(=O)CS5)CC3)cccc2n1` [Example 30, 1-Hydroxy-t-4-[(3-oxo-3,4-dihydro-2H-pyrido[3,2-b][1,4]thiazin-6-ylmethyl)-amino]-r-cyclohexanecarboxylic acid (2-methyl-quinoxalin-5-yl)-amide dihydrochloride], under setting [1], the minimum inhibitory concentration (MIC) was at most 16 µg/mL.

For `Cc1cnc2cccc(NC(=O)[C@]3(O)CC[C@@H](NCc4cc5c(cn4)OCCO5)CC3)c2n1` [Example 42, t-4-[(2,3-Dihydro[1,4]dioxino[2,3-c]pyridin-7-ylmethyl)amino]-1-hydroxy-N-(3-methyl-5-quinoxalinyl)-r-cyclohexanecarboxamide dihydrochloride], the MIC under setting [2] is at most 8 µg/mL.

For the molecule `COc1ccc2cccc(NC(=O)[C@@H]3CC[C@@H](NCc4ccc5c(n4)NC(=O)CS5)[C@H](O)C3)c2n1` [Example 20, (1R,3R,4R)-3-Hydroxy-4-[(3-oxo-3,4-dihydro-2H-pyrido[3,2-b)[1,4]thiazin-6-ylmethyl)-amino]-cyclohexanecarboxylic acid (2-methoxy-quinolin-8-yl)-amide dihydrochloride], under setting [2], the MIC is at most 2 µg/mL.

For `O=C1COc2ccc(CN[C@H]3CC[C@](O)(C(=O)Nc4ccnc5ccncc45)CC3)nc2N1` [Example 29, 1-Hydroxy-t-4-[(3-oxo-3,4-dihydro-2H-pyrido[3,2-b][1,4]oxazin-6-ylmethyl)-amino]-r-cyclohexanecarboxylic acid [1,6]naphthyridin-4-ylamide], under setting [3], the MIC was at most 2 µg/mL.

For the molecule `N#Cc1ccc2cccc(NC(=O)[C@H]3CC[C@H](NCc4ccc5c(n4)NC(=O)CS5)[C@H](O)C3)c2n1` [Example 12, (1 S,3R,4S)-3-Hydroxy-4-[(3-oxo-3,4-dihydro-2H-pyrido[3,2-b][1,4]thiazin-6-ylmethyl)-amino]-cyclohexanecarboxylic acid (2-cyano-quinolin-8-yl)-amide hydrochloride], under setting [2], the minimum inhibitory concentration (MIC) is at most 2 µg/mL.

Turning to `N#Cc1ccc2cccc(NC(=O)[C@]3(O)CC[C@@H](NCc4ccc5c(n4)NC(=O)CO5)CC3)c2n1` [Example 11, 1-Hydroxy-t-4-[(3-oxo-3,4-dihydro-2H-pyrido[3,2-b][1,4]oxazin-6-ylmethyl)-amino]-r-cyclohexanecarboxylic acid (2-cyano-quinolin-8-yl)-amide hydrochloride], the MIC under setting [2] was at most 2 µg/mL.

Consider `COc1ccc2nccc(NC(=O)[C@@H]3CC[C@@H](NCc4ccc5c(n4)NC(=O)CO5)[C@@H](F)C3)c2n1` [Example 31, (1R,3S,4R)-3-Fluoro-4-[(3-oxo-3,4-dihydro-2H-pyrido[3,2-b][1,4]oxazin-6-ylmethyl)-amino]-cyclohexanecarboxylic acid (6-methoxy-[1,5]naphthyridin-4-yl)-amide dihydrochloride], for which the minimal inhibitory concentration (MIC) was at most 2 µg/mL.
